The source of these data is patent US20220242879A1, “FUSED HETEROCYCLE DERIVATIVES” (Janssen Sciences Ireland Unlimited Company, priority 2019, published 2022).

A word on the EC50: it is the concentration giving half of the maximal effect. By CC50 is commonly meant the concentration at which the toxic effect on the cells reaches its halfway point.

Molecules are shown by their SMILES.

For data set [1], the system named is HBV. Description: HBV replication inhibition assay (BDNA assay), HepG2.2.15 cells. As to conditions: 6 days, HBV DNA in supernatant by branched DNA QuantiGene. Type of data set: cell-based, Hepatitis B virus. On the procedure: HBV replication inhibition by the disclosed compounds were determined in cells infected or transfected with HBV or cells with stably integrated HBV, such as HepG2.2.15 cells (Sells et al. 1987). In this example, HepG2.2.15 cells were maintained in cell culture medium containing 10% fetal bovine serum (FBS), Geneticin, L-glutamine, penicillin and streptomycin. HepG2.2.15 cells were seeded in 96-well plates at a density of 40,000 cells/well and were treated with serially diluted compounds at a final DMSO concentration of 0.5% either alone or in combination by adding drugs in a checker box format. […] HBV DNA was denatured by addition of 0.2 M NaOH and detected using a branched DNA (BDNA) QuantiGene assay kit according to manufacturer recommendation (Affymetrix). HBV DNA levels were also quantified using qPCR, based on amplification of encapsidated HBV DNA extraction with QuickExtraction Solution (Epicentre Biotechnologies) and amplification of HBV DNA using HBV specific PCR probes that can hybridize to HBV DNA and a fluorescently labeled probe for quantitation. In addition, cell viability of HepG2.2.15 cells incubated with test compounds alone or in combination was determined by using CellTitre-Glo reagent according to the manufacturer protocol (Promega). […]

The test system of data set [2] is HBV. Briefly: Anti-HBV activity, HepG2.117 cell line, intracellular HBV DNA by real-time PCR. Format: cell-based, Hepatitis B virus. As to conditions: mean value; HepG2.117 cells, 3 days of treatment, intracellular HBV DNA; read-out: HBV-AVE-HepG2.117 EC50. On the procedure: The anti HBV activity was measured using the HepG2.117 cell line, a stable, inducibly HBV producing cell line, which replicates HBV in the absence of doxicycline (Tet-off system). The HepG2 cell line is available from ATCC® under number HB-8065. Transfection of the HepG2 cell line can be as described in Sun and Nassal 2006 Journal of Hepatology 45 (2006) 636-645 “Stable HepG2- and Huh7-based human hepatoma cell lines for efficient regulated expression of infectious hepatitis B virus”.
For the antiviral assay, HBV replication was induced, followed by a treatment with serially diluted compound in 96-well plates. After 3 days of treatment, the antiviral activity was determined by, quantification of intracellular HBV DNA using real-time PCR and an HBV specific primer set and probe.

The subject of another data set is HepG2.117 cells. Briefly: Cytotoxicity, ATPlite Luminescence Assay. Type of data set: cell-based, human. As to conditions: mean value; cells incubated for 3 days, viability by ATPlite; read-out: TOX-HepC2.117 CC50. As for the experimental part: Cytotoxicity of the compounds was tested using HepG2 or HepG2.117 cells, incubated for 3 days in the presence of compounds. The viability of the cells was assessed using the PERKIN ELMER ATPlite Luminescence Assay System.”
(In general: Cellular ATP, detected with luciferase, serves as a proxy for viable cell number.)

Consider `N#Cc1cc(NC(=O)N2CCc3nn4c(c3C2)-c2nocc2CC(COCC(F)F)C4)ccc1F` (single isomer, unassigned) [Example 7a, (5R*)-N-(3-Cyano-4-fluorophenyl)-5-((2,2-difluoroethoxy)methyl)-5,6,9,10-tetrahydro-4H-isoxazolo[3,4-c]pyrido[4′,3′:3,4]pyrazolo[1,5-a]azepine-11(12H)-carboxamide], for which the EC50 in the data set with HBV [1] came to 21 nM.

For `N#Cc1cc(NC(=O)N2CCc3nn4c(c3C2)-c2nocc2CC(COCC(F)F)C4)ccc1F` (single isomer, unassigned) [Example 5a, (5S*)-N-3-Cyano-4-fluorophenyl)-5-(2,2-difluoroethoxy)methyl)-5,6,9,10-tetrahydro-4H-isoxazolo[3,4-c]pyrido[4′,3′:3,4]pyrazolo[1,5-a]azepine-11(12H)-carboxamide], the EC50 in the data set with HBV [1] was 82 nM.

`CNC(=O)[C@@H]1Cc2conc2-c2c3c(nn2C1)C[C@@H](C)N(C(=O)c1ccc(Cl)c(Cl)c1)C3` (single isomer, unassigned) [Compound 47]: the EC50 with HBV [2] came out at 265 nM. In the data set on HepG2.117 cells, the CC50 is more than 50000 nM.
